Measured values published in US20250345433A1, “Drug For Treating Disorders Of An Organ Or Tissue Function And Diseases Accompanied By Such Disorders, And The Method For Obtaining It” (priority 2018, published 2025).

Key:
[1] = system: male Wistar rats with hemorrhagic stroke; assay: Hemorrhagic stroke (intracerebral hemorrhage) model in rats; format: in vivo, rat
Method: In the study, male Wistar rats (180-200 g) were used. […] Drug administration was started 1 hour after the pathology simulation and then daily, not earlier than 1 hour before the behavioral tests.
This method involves the double introduction of autologous blood into the specified structure of the brain of animals. The hemorrhagic stroke simulated in this way in rats in localization corresponds to intracerebral hemorrhages that occur in humans when the lenticularity arteries rupture. The total volume of hematoma in animals corresponds to approximately 40-50 ml in terms of human body weight.

[2] = system: children with hyperactivity; assay: ADHD/hyperkinetic disorder in children vs. Piracetam (SNAP-IV, TOVA, fine motor); format: in vivo, human
Description: Materials and methods of examination. The study included 57 children aged 6 to 9 years (40 boys and 17 girls) who attended day care centers and elementary schools of secondary schools.
• 1. The presence of clinical signs of hyperactivity that meet the criteria of ICD-10 (F 90); 2. Age-6-9 years; • 3. Intellectual indicators are not lower than the average on the Wechsler scale (more than 90 points).
Children with behavioral disorders due to other mental disorders were excluded from the study. For 2 months, the main group of children (n=30) with clinical signs of GH received monotherapy for the claimed medicament in 2 tablet 3 times a day. Children from the control group, similar to the main group by clinical signs, sex and age (n=27), were administered Piracetam in standard age doses for the same period.
The assessment of the severity of GH according to the criteria of attention disorder, hyperactivity and impulsivity in the examined children was carried out using the SNAP-IV scale (Swanson J., 1992). The psychophysiological test TOVA (The Test of Variables of Attention), allowed to assess the degree of attention disorders (omissions of significant stimuli) and impulsivity (false presses of a button), information processing speed (reaction time) in relation to standard indicators (Greenberg F M, Waldman I D, 1993). The child's fine motor skills were evaluated using tests from the battery of A. R. Luria (1973), selected by testing on these age groups with the development of criteria for scoring points Zh. M. Glozman, et al. (2006).
The results of the study. At the first stage of the study, using the SNAP-IV scale (Swanson J., 1992) in children of the main and control groups, an initial assessment of the severity of GH was carried out separately for each of the criteria (attention disorder, hyperactivity and impulsivity). Repeated similar assessment was carried out after a two-month course of therapy with the declared Drug in the main group and Piracetam therapy in the control group. The obtained indicators were compared with statistical processing (Table 28).
The computer-aided testing of TOVA (“Test of Variables of Attention”) was represented by three groups of tests, which allow judging the degree of attention disorder (missing significant stimuli), impulsivity (false pressing a button), information processing speed (reaction time). Baseline indicators of children with GH before treatment were compared with those of children of the main group (treatment with the claimed Drug) and indicators of children of the control group (Piracetam therapy) after a two-month course of treatment.

Row | SMILES | decrease of the area of the hemorrhagic lesion ([1]; 7th day compared with the 3rd day) [%] | total time spent in the dark compartment, passive avoidance reaction, M (QI; Q3) ([1]; 7th day of the study) | difference in motor preference indices ([1]; compared to negative test (Preparation 4)) [%] | children with increase in disinhibition, excitability ([2]; 2 months) [%] | children with sleep disturbance ([2]; 2 months) [%] | number of children with increase in disinhibition, excitability ([2]; 2 months, n = 27) | number of children with sleep disturbance ([2]; 2 months, n = 27) | TOVA false alarm ([2]; First half of the test, after treatment, before 15.3 ± 2.2) [%] | TOVA Omissions of significant incentives ([2]; First half of the test, after treatment, before 19.1 ± 2.4) [%] | TOVA response time ([2]; First half of the test, after treatment, before 795 ± 103) [ms] | TOVA false alarm ([2]; The second half of the test, after treatment, before 29.2 ± 3.3) [%] | TOVA Omissions of significant incentives ([2]; The second half of the test, after treatment, before 29.5 ± 3.3) [%] | TOVA response time ([2]; The second half of the test, after treatment, before 741 ± 126) [ms] | Total mark of fine motor quality ([2]; after treatment, before 2.24 ± 0.21) | SNAP-IV impulsivity ([2]; after two-month treatment, before 2.40 ± 0.28) | SNAP-IV hyperactivity ([2]; after two-month treatment, before 2.64 ± 0.29) | SNAP-IV disorder of attention ([2]; after two-month treatment, before 2.76 ± 0.31)
1 | COCCOC(=O)C1=C(C)NC(C)=C(C(=O)OC(C)C)C1c1cccc([N+](=O)[O-])c1 (centres unmarked) [Nimodipine, nimodipine] | 16.7 | 171.00 (163.00; 175.00) s | 24.22 | – | – | – | – | – | – | – | – | – | – | – | – | – | –
2 | NC(=O)CN1CCCC1=O [Piracetam] | – | – | – | 11.1 | 26 | 3 | 7 | 12.6 ± 3.1 | 13.5 ± 1.4 | 745 ± 87 | 20.5 ± 2.9 | 16.9 ± 2.9 | 665 ± 77 | 1.62 ± 0.16 | 2.36 ± 0.20 | 2.46 ± 0.11 | 2.52 ± 0.13
